Results as given in patent US11453689B2, “3-pyrrolidine-indole derivatives as serotonergic psychedelic agents for the treatment of CNS disorders” (Mindset Pharma Inc., priority 2020, dated 2022).
Where two headings read alike, the source gives them in different places.

Key:
[1] = Human liver microsomes stability with NADPH; settings: for Remaining Percentage (%) after 60 min, Human: human liver microsomes, with NADPH, 2 μM; for half-life at 2 μM / microsomal CLint at 2 μM: human, microsomes
Experimental: (§1) The objective of this study was to estimate in vitro metabolic stability of exemplary compounds in pooled human, male rat and male mouse liver microsomes. The concentrations of exemplary compounds in reaction systems were evaluated by LC-MS/MS for estimating the stability in pooled human, male rat and male mouse liver microsomes. The in vitro intrinsic clearances of test compounds were determined as well.
(§2) A master solution in the “Incubation Plate” containing phosphate buffer, ultra-pure H2O, MgCl2 solution and liver microsomes was made according to Table 3. The mixture was pre-warmed at 37° C. water bath for 5 minutes.
(§3) 40 μL of 10 mM NADPH solution was added to each well. The final concentration of NADPH was 1 mM. The negative control samples were prepared by replacing NADPH with 40 μL of ultra-pure H2O. Samples were prepared in duplicate. Negative controls were prepared in singlet.
(§4) The reaction was started with the addition of 4 μL of 200 μM exemplary test compounds or control compounds to each master solution to get the final concentration of 2 μM. This study was performed in duplicate.
(§5) Aliquots of 50 μL were taken from the reaction solution at 0, 15, 30, 45 and 60 minutes. The reaction solutions were stopped by the addition of 4 volumes of cold methanol with IS (100 nM alprazolam, 200 nM imipramine, 200 nM labetalol and 2 μM ketoprofen). Samples were centrifuged at 3,220 g for 40 minutes. Aliquot of 90 μL of the supernatant was mixed with 90 μL of ultra-pure H2O and then was used for LC-MS/MS analysis.
(§6) LC/MS analysis was performed for all samples from this study using a Shimadzu liquid chromatograph separation system equipped with degasser DGU-20A5R; solvent delivery unit LC-30AD; system controller SIL-30AC; column oven CTO-30A; CTC Analytics HTC PAL System. Mass spectrometric analysis was performed using an Triple Quad™ 5500 instrument.
(§7) All calculations were carried out using Microsoft Excel. Peak areas were determined from extracted ion chromatograms. The slope value, k, was determined by linear regression of the natural logarithm of the remaining percentage of the parent drug vs. incubation time curve.
(§8) Conversion of the in vitro t1/2 (min) into the in vitro intrinsic clearance (in vitro CLint, in μL/min/mg proteins) was done using the following equation (mean of duplicate determinations): […]

[2] = Rat liver microsomes stability with NADPH; settings: for Remaining Percentage (%) after 60 min, Rat: rat liver microsomes, with NADPH, 2 μM; for half-life at 2 μM / microsomal CLint at 2 μM: male, rat, microsomes
Experimental: as §1, §2, §3, §4, §5, §6, §7, §8

[3] = Mouse liver microsomes stability with NADPH; settings: for Remaining Percentage (%) after 60 min, Mouse: mouse liver microsomes, with NADPH, 2 μM; for half-life at 2 μM / microsomal CLint at 2 μM: male, mouse, microsomes
Experimental: as §1, §2, §3, §4, §5, §6, §7, §8

[4] = target: human 5-HT2A (h5-HT2A) receptor (Homo sapiens (Human), UniProt P28223); assay: FLIPR calcium assay, human 5-HT2A receptor, agonist mode; assay type: cell-based
Experimental: I. Assessment of the Activated Effect of Exemplary Compounds of Formula I Targeting on Human 5-HT2A (h5-HT2A) Receptor Under Agonist Mode:
1. Culture the cells in cell culture medium (DMEM containing 10% FBS, 1× penicillin-streptomycin 300 μg/ml G418 and 100 μg/ml hygromycin B) at 37° C., 5% (v/v) CO2.
2. One day before the assays, detach the cell using TrypLE™ Express and count cells using cell counter.
3. Seed 20000 cells/well in 30 μl/well culture medium to a 384-well cell plate and incubate the cells overnight at 37° C., 5% (v/v) CO2.
4. On the assay day, prepare 2×dye solution following the manual of the FLIPR® Calcium 6 Assay Kit: i. Dilute the dye with assay buffer(20 mM HEPES in 1× HBSS, PH7.4); ii. Add probenecid to the final concentration of 5 mM; iii. Vortex vigorously for 1-2 minutes.
5. Medium from cell plate by flicking the cell plate on towel papers.
6. Add 10 μl of assay buffer and 10 μl of 2×dye solution to each well of the cell plate.
7. Put the cell plate on plate shaker, agitate the plate at 600 rpm for 2 minutes. Incubate the plate at 37° C. for 2 hours followed by additional 15-minute incubation at 25° C.
8. Prepare 3×compound in assay buffer: a. Dilute reference compounds to required concentration with DMSO. Add the compounds to a 384-well compound plate; b. Perform serial dilutions; c. Add 10 mM test compounds to the compound plate, perform 3-fold serial dilutions. d. […] Add 20 μl/well assay buffer to the compound plate; f. Mix the plate on plate shaker for 2 mins;
i. The normalized fluorescence reading (RFU) is calculated as shown follow, while Fmax and Fmin stand for maximum and minimum of calcium signal during defined time window: RFU=Fmax−Fmin
ii. Calculate the percentage activation by using following equation: […]
iii. Calculate EC50 by fitting % activation against log of compound concentrations with Hill equation using XLfit.

[5] = target: human 5-HT2A receptor (Homo sapiens (Human), UniProt P28223); assay: Radioligand ([3H]-ketanserin) binding assay on human 5-HT2A receptor
Experimental: i. Prepare the assay buffer following the table below;
ii. Preparation of 8 doses of reference and exemplary test compounds starting from 10 mM stock solution as requested by 5-fold serial dilutions with 100%;
iii. […] a. Add 50 μl/well of 0.5% (v/v) PEI to UniFilter-96 GF/B plates. Seal the plates and incubate at 4° C. for 3 hrs; b. After incubation, wash the plates 3 times with ice-cold wash buffer (50 mM Tris, pH7.4);
iv. Preparation of assay plates: a. Dilute cell membrane with assay buffer and add 330 μl/well to 96 round deep well plates to reach a concentration of 20 μg/well; b. Prepare 8 concentrations of reference or exemplary test compounds and add 110 μl/well to 96 round deep well plates; c. Dilute [3H]-ketanserin with assay buffer to 5 nM (5× final concentration) and add 110 μl/well to 96 round deep well plates.
v. Centrifuge the plate at 1000 rpm for 30 secs and then agitate at 600 rpm, R.T. for 5 min.
vi. Seal the plates and incubate the plate at 27° C. for 90 min.
vii. Stop the incubation by vacuum filtration onto GF/B filter plates followed by 4 times washing with ice-cold wash buffer (50 mM Tris, pH7.4).
ix. Seal the filter plates and add 40 μl/well of scintillation cocktail.
x. Read the plate by using a Microbeta2 microplate counter.
For reference and exemplary test compounds, the results are expressed as % Inhibition, using the normalization equation: N=100−100×(U−C2)/(C1−C2), where U is the unknown value, C1 is the average of high controls, and C2 is the average of low controls. The IC50 is determined by fitting percentage of inhibition as a function of compound concentrations with Hill equation using XLfit.

CN(C)CCc1c[nH]c2cccc(O)c12 [Psilocin, 4-hydroxy-N,N-dimethyltryptamine, reference compound]
Remaining Percentage (%) after 60 min, Human [1]: 70.16% | Remaining Percentage (%) after 60 min, Rat [2]: 62.68% | Remaining Percentage (%) after 60 min, Mouse [3]: 96.89%

[2H]C([2H])([2H])N1CCC[C@@H]1Cc1c[nH]c2cccc(OCc3ccccc3)c12 [Compound I-45, (R)-4-(benzyloxy)-3-((1-(methyl-d3)pyrrolidin-2-yl)methyl)-1H-indole]
EC50 [4]: > 10000 nM

[2H]C([2H])(c1c[nH]c2cccc(F)c12)[C@H]1CCCN1 [Compound I-41, (R)-4-fluoro-3-(pyrrolidin-2-ylmethyl-d2)-1H-indole]
EC50 [4]: 1000 to 10000 nM | IC50 [5]: 500 to 5000 nM

[2H]C([2H])([2H])N1CCC[C@@H]1Cc1c[nH]c2cccc(F)c12 [Compound I-40, (R)-4-fluoro-3-((1-(methyl-d3)pyrrolidin-2-yl)methyl)-1H-indole]
EC50 [4]: < 1000 nM | IC50 [5]: < 500 nM | Remaining Percentage (%) after 60 min, Human [1]: 35.69% | half-life at 2 μM [1]: 40.4 min | microsomal CLint at 2 μM [1]: 34.5 µL/min/mg | half-life at 2 μM [2]: 54.3 min | microsomal CLint at 2 μM [2]: 25.5 µL/min/mg | Remaining Percentage (%) after 60 min, Rat [2]: 46.51% | half-life at 2 μM [3]: 63 min | microsomal CLint at 2 μM [3]: 22 µL/min/mg | Remaining Percentage (%) after 60 min, Mouse [3]: 51.70%

CN1CCC[C@@H]1Cc1c[nH]c2cccc(OCc3ccccc3)c12 [Compound I-46, (R)-4-(benzyloxy)-3-((1-methylpyrrolidin-2-yl)methyl)-1H-indole]
EC50 [4]: > 10000 nM

[2H]C([2H])(c1c[nH]c2cccc(O)c12)[C@@H]1CCCN1 [Compound I-51, (S)-3-(pyrrolidin-2-ylmethyl-d2)-1H-indol-4-ol]
EC50 [4]: < 1000 nM

[2H]C([2H])(c1c[nH]c2cccc(F)c12)[C@H]1CCCN1C([2H])([2H])[2H] [Compound I-37, (R)-4-fluoro-3-((1-(methyl-d3)pyrrolidin-2-yl)methyl-d2)-1H-indole]
EC50 [4]: < 1000 nM | IC50 [5]: 500 to 5000 nM | Remaining Percentage (%) after 60 min, Human [1]: 31.93% | half-life at 2 μM [1]: 36.4 min | microsomal CLint at 2 μM [1]: 38.1 µL/min/mg | half-life at 2 μM [2]: 29.8 min | microsomal CLint at 2 μM [2]: 46.5 µL/min/mg | Remaining Percentage (%) after 60 min, Rat [2]: 24.82% | half-life at 2 μM [3]: 53.7 min | microsomal CLint at 2 μM [3]: 25.8 µL/min/mg | Remaining Percentage (%) after 60 min, Mouse [3]: 46.10%

[2H]C([2H])([2H])N1CCC[C@H]1Cc1c[nH]c2cccc(OCc3ccccc3)c12 [Compound I-52, (S)-4-(benzyloxy)-3-((1-(methyl-d3)pyrrolidin-2-yl)methyl)-1H-indole]
EC50 [4]: > 10000 nM

[2H]C([2H])(c1c[nH]c2cccc(Cl)c12)[C@H]1CCCN1C([2H])([2H])[2H] [Compound I-38, (R)-4-chloro-3-((1-(methyl-d3)pyrrolidin-2-yl)methyl-d2)-1H-indole]
EC50 [4]: > 10000 nM | IC50 [5]: < 500 nM

[2H]C([2H])([2H])N1CCC[C@H]1Cc1c[nH]c2cccc(O)c12 [Compound I-53, (S)-3-((1-(methyl-d3)pyrrolidin-2-yl)methyl)-1H-indol-4-ol]
EC50 [4]: 1000 to 10000 nM | IC50 [5]: > 5000 nM

CN1CCC[C@@H]1Cc1c[nH]c2cccc(O)c12 [Compound I-47, (R)-3-((1-methylpyrrolidin-2-yl)methyl)-1H-indol-4-ol]
EC50 [4]: < 1000 nM

[2H]C([2H])([2H])N1CCC[C@@H]1Cc1c[nH]c2cccc(OC(=O)CCCCCCC/C=C\C/C=C\CCCCC)c12 [Compound I-48, 3-(((R)-1-(methyl-d3)pyrrolidin-2-yl)methyl)-1H-indol-4-yl (9Z,12Z)-octadeca-9,12-dienoate]
EC50 ([4]; read-out: h5-HT2A EC50, FLIPR, agonist mode): 1000 to 10000 nM | IC50 ([5]; read-out: h5-HT2A IC50, [3H]-ketanserin competition binding): < 500 nM | Remaining Percentage (%) after 60 min, Human [1]: 34.38% | half-life at 2 μM [1]: 73.4 min | microsomal CLint at 2 μM [1]: 18.9 µL/min/mg | half-life at 2 μM [2]: 38.9 min | microsomal CLint at 2 μM [2]: 35.6 µL/min/mg | Remaining Percentage (%) after 60 min, Rat [2]: 41.86% | half-life at 2 μM [3]: 17.3 min | microsomal CLint at 2 μM [3]: 80 µL/min/mg | Remaining Percentage (%) after 60 min, Mouse [3]: 9.06%

[2H]C([2H])(c1c[nH]c2cccc(O)c12)[C@H]1CCCN1 [Compound I-50, (R)-3-(pyrrolidin-2-ylmethyl-d2)-1H-indol-4-ol]
EC50 [4]: < 1000 nM | IC50 [5]: 500 to 5000 nM | Remaining Percentage (%) after 60 min, Human [1]: 69.29% | half-life at 2 μM [1]: 113 min | microsomal CLint at 2 μM [1]: 12.2 µL/min/mg | half-life at 2 μM [2]: 39.7 min | microsomal CLint at 2 μM [2]: 34.9 µL/min/mg | Remaining Percentage (%) after 60 min, Rat [2]: 34.11% | half-life at 2 μM [3]: 74.6 min | microsomal CLint at 2 μM [3]: 18.6 µL/min/mg | Remaining Percentage (%) after 60 min, Mouse [3]: 57.27%

Oc1cccc2[nH]cc(C[C@H]3CCCN3)c12 [Compound I-3, (R)-3-(pyrrolidin-2-ylmethyl)-1H-indol-4-ol]
EC50 [4]: < 1000 nM

[2H]C([2H])(c1c[nH]c2cccc(OP(=O)(O)O)c12)[C@H]1CCCN1C([2H])([2H])[2H] [Compound I-54, (R)-3-((1-(methyl-d3)pyrrolidin-2-yl)methyl-d2)-1H-indol-4-yl dihydrogen phosphate]
EC50 [4]: 1000 to 10000 nM

[2H]C([2H])(c1c[nH]c2cccc(OCc3ccccc3)c12)[C@H]1CCCN1C([2H])([2H])[2H] [Compound I-43, (R)-4-(benzyloxy)-3-((1-(methyl-d3)pyrrolidin-2-yl)methyl-d2)-1H-indole]
EC50 [4]: > 10000 nM

[2H]C([2H])(c1c[nH]c2cccc(F)c12)[C@@H]1CCCN1C([2H])([2H])[2H] [Compound I-42, (S)-4-fluoro-3-((1-(methyl-d3)pyrrolidin-2-yl)methyl-d2)-1H-indole]
EC50 [4]: > 10000 nM | IC50 [5]: > 5000 nM
